Consider 1 compound from patent US12544375B2, “Small molecule therapeutic for parkinson's disease paired with a biomarker of therapeutic activity” (The Board of Trustees of the Leland Stanford Junior …, priority 2019, dated 2026).

In one data set the test system is Miro1 mRNA. The data set can be described thus: Miro1 mRNA expression by qPCR in fibroblasts. It counts as cell-based, human. The protocol:
FIG. 8. Related to FIG. 2-4. Miro1 Reducer in Human Cell and Fly Models. (A) Fibroblasts from Healthy-1 and PD-2 were treated, lysed, and blotted as indicated. Band intensities are normalized to those of GAPDH from the same blots and compared to “Healthy-1, no treatment”. n=4 independent experiments. (B) Fibroblasts from PD-2 were treated and immunostained as indicated. The intensity was quantified for each cell across 264-320 cells from 3 independent experiments, compared to “no treatment”. (C) Fibroblasts were treated, immunoprecipitated (IPed) with anti-Miro1, and blotted as indicated. Similar results were observed twice. […] The GTPase activity of the IPed Miro1 protein was measured as described in Method. […] The MitoSox intensity was quantified for each cell across 106-161 cells from 3 coverslips. […] The TMRM intensity was measured for each cell across 48-60 cells from 3 independent experiments, and expressed as a fraction of the mean of “Healthy-1, no treatment”. […] The movement (the intensity of non-yellow) was quantified for each cell as described in (Tsai et al., 2014) across 22-31 cells from 3 transfections. […] (1) Left: The percentage of TH-positive iPSC-derived neurons out of total cells (Dapi-positive) is calculated after immunocytochemistry under 20× as described in FIG. 3. […]
PCR. […] Concentrations of total RNA were measured using a Nano Drop. […]

Data set [1] concerns healthy-1 or PD-2 fibroblasts. The experiment in a line: Baseline mitochondrial reactive oxygen species, MitoSox staining. It is filed as cell-based, human. As to conditions: 10 μM for 30 hrs. The protocol:
FIG. 8. Related to FIG. 2-4. Miro1 Reducer in Human Cell and Fly Models. (A) Fibroblasts from Healthy-1 and PD-2 were treated, lysed, and blotted as indicated. Band intensities are normalized to those of GAPDH from the same blots and compared to “Healthy-1, no treatment”. n=4 independent experiments. (B) Fibroblasts from PD-2 were treated and immunostained as indicated. The intensity was quantified for each cell across 264-320 cells from 3 independent experiments, compared to “no treatment”. (C) Fibroblasts were treated, immunoprecipitated (IPed) with anti-Miro1, and blotted as indicated. Similar results were observed twice. (D) Similar as in (C), fibroblasts were treated as indicated, and IPed with anti-Miro1. The GTPase activity of the IPed Miro1 protein was measured as described in Method. […] The MitoSox intensity was quantified for each cell across 106-161 cells from 3 coverslips. […] The TMRM intensity was measured for each cell across 48-60 cells from 3 independent experiments, and expressed as a fraction of the mean of “Healthy-1, no treatment”. […] The movement (the intensity of non-yellow) was quantified for each cell as described in (Tsai et al., 2014) across 22-31 cells from 3 transfections. […] (1) Left: The percentage of TH-positive iPSC-derived neurons out of total cells (Dapi-positive) is calculated after immunocytochemistry under 20× as described in FIG. 3. […]

For the compound `O=C(Nc1ccc(Nc2cc(-n3ccnc3)ncn2)cc1)Nc1cccc(F)c1` [Miro1 Reducer], the “Miro1 mRNA expression (qPCR)” value in the data set with Miro1 mRNA is “nor did it change Miro1 mRNA expression”. In addition, the “baseline mitochondrial reactive oxygen species levels (MitoSox)” value in data set [1] was “did not affect”.
